Experimental data: patent US10543223B2, “Mannose derivatives useful for treating pathologies associated with adherent E. coli” (ENTEROME, priority 2015, dated 2020)
Where “and” joins values, the source holds several entries; their conditions need not be identical. Equal values may be shown once. Read-outs that look alike come from different tables or passages of the source.

Legend:
LF82 = test: Hemagglutination inhibition assay, guinea pig erythrocytes, E. coli strain LF82; assay type: cell-based; conditions: Escherichia coli, read-out: MIC of haemagglutination
Method: (§1) Interaction of E. coli FimH adhesins with the glycocalyx of guinea pig erythrocytes forms a crosslinked network in the wells. Glycoconjugates, added in a 2-fold dilution series, prevent the agglutination reaction. The inhibition titer is defined as the lowest concentration of the glycoconjugate at which hemagglutination is still inhibited. Several strains of E. coli were grown statically overnight in LB at 37° C., washed three times in ice-cold phosphate-buffered saline, and redissolved. A 2-fold dilution of glycoconjugates with a starting concentration of 1 mM was prepared in 25 μL of PBS with 10% of DMSO. Importantly, the pipet tip was changed at every dilution step to avoid carry-over. Next, the bacterial solution (25 μL) was added to the 2-fold dilution series of the compound. Finally, 50 μL of guinea pig red blood cells, washed and diluted in the buffer to 5% of the blood volume, was added to reach 100 μL. The plates were left on ice for one night before read-out.
(§2) The anti-adhesive capacity of the inhibitors was evaluated against ten E. coli strains isolated from CD patients, urinary tract infections, and hip prosthesis infections.

[1] = Faeces concentrations and recovery after IV and PO administration to rats; assay type: in vivo, Sprague Dawley rats; conditions: 0-24 h; for dose excreted: Sprague Dawley, rat, faeces
Method: Plasma and faeces concentrations after administration of Compound 1b and for compound 13 of WO 2014/016361 at 1 mg/kg by intravenous route and 10 mg/kg by oral route to Sprague Dawley rats Blank rat faeces are homogenized with 3 volumes of UHQ water until obtention of a paste. Then 100 μL of the homogenate are spiked with the molecules and precipitated with 300 μL of acetonitrile. The concentration ranges tested are: • 0.5 ng/mL to 1000 ng/mL for plasma, • 4 to 2000 ng/g for faeces, corresponding to 1 to 500 ng/mL of faeces homogenate. 3. In-Life Part After administration, the animals are placed in individual metabolic cages in order to collect faeces samples during 24 hours. Faeces samples are collected over the 24 hours of the experiment. They are precisely weighed and 3 volumes of UHQ water are added. The mixture is homogeneized until obtention of a paste. Then 100 μL of the homogenate are taken and extracted with 300 μL of Acetonitrile. Analysis is performed using LC-MS/MS determination according to previous analytical test results.

[2] = Plasma concentrations and pharmacokinetics after IV and PO administration to rats; assay type: in vivo, Sprague Dawley rats; conditions: for % AUCextra / AUC(0-inf) / AUC(0-t) / Cmax / Tmax: DMSO, based on mean data
Method: Plasma and faeces concentrations after administration of Compound 1b and for compound 13 of WO 2014/016361 at 1 mg/kg by intravenous route and 10 mg/kg by oral route to Sprague Dawley rats
At least 8 point calibration standards are run using standard conditions which consist to LC-MS/MS system with C18 column after precipitation of proteins with acetonitrile before the start of the analytical test.
For the plasma, 100 μL of blank rat plasma are directly spiked with the compounds before being precipitate with 300 μL of acetonitrile.
The concentration ranges tested are: • 0.5 ng/mL to 1000 ng/mL for plasma, • 4 to 2000 ng/g for faeces, corresponding to 1 to 500 ng/mL of faeces homogenate. 3. In-Life Part
12 male Sprague Dawley rats around 6-7 week old are used.
At prescribed times, blood is collected. Animals are briefly anaesthetised with Isoflurane® using an anaesthetic system (Équipement Vétérinaire Minerve) during blood samplings.
Blood samples are centrifuged at 2500 rpm at +4° C. (between 0 and 9° C.), the plasma is removed and placed into labelled polypropylene tubes. Individual plasma samples are stored frozen at −20° C. (target temperature) until analysis.
100 μL of the plasma sample are taken and 300 μL of acetonitrile are added. After protein precipitation, analysis is performed using LC-MS/MS determination according to previous analytical test results.
Concentrations of the samples are calculated directly from chromatograms after automatic integration by Analyst® 1.5.1 and expressed as ng/mL.
Mean plasma concentrations are calculated (when calculable, i.e. n≥2) using individual concentration and are expressed with the corresponding standard deviation value and variation coefficient (when calculable, i.e. n≥3), with
[formula] The individual plasma concentrations are tabulated for each rat and scheduled sampling time. Concentrations below the LLOQ are indicated by BLQ. All BLQ concentrations are substituted by zero for calculation of the descriptive statistics of the concentrations. 5. Results Estimation of pharmacokinetics parameters is performed using Kinetica® (Version 4.3—Thermo Electron Corporation—Philadelphia—USA). It was performed by using a one-compartment model approach, which considers the body as a single compartment in which the concentration is homogeneous. The following parameters are estimated: Cmax (ng/mL): maximal plasma concentration Tmax (h): first time to reach Cmax AUCt (ng/mL*h): area under the plasma concentration-time curve from administration up to the last quantifiable concentration at time t
[formula] “BLQ” stands for “Below the Limit of Quantification” ([…] for plasma). Compound 1b

[3] = system: uropathogenic E. coli strain UTI89; test: Hemagglutination inhibition assay, guinea pig erythrocytes, E. coli strain UTI89; assay type: cell-based; conditions: Escherichia coli, read-out: MIC of haemagglutination
Method: as §1
Inhibition of E. coli Strain UTI89 Isolated from Patient with Urinary Tract Infection.
as §2

[4] = IV 1 mg/kg, individual rats IV1-IV3, 1 mg/kg
[5] = PO 10 mg/kg, individual rats PO4-PO6, 10 mg/kg
[6] = male, Sprague Dawley, rat, plasma, IV 1 mg/kg
[7] = male, Sprague Dawley, rat, plasma, PO 10 mg/kg

## Cc1nc(-c2cnccn2)sc1C(=O)c1cnc(C[C@H]2O[C@H](CO)[C@@H](O)[C@H](O)[C@@H]2O)s1 [Compound 1b, 5-(4-methyl-2-(pyrazin-2-yl)thiazole-5-carbonyl) 2-((-α-D-mannopyranos-1-yl)methyl)thiazole]
LF82
  MIC: 0.024 µM
[1]; [4]
  Faeces concentration: 3557 ng/g and 6433 ng/g and 2274 ng/g
  Faeces concentration (homogenate): 889 ng/mL and 1608 ng/mL and 569 ng/mL
  Recovery in faeces: 9.2% and 6.8%
  Total amount of compound in faeces: 25318 ng and 22175 ng and 19840 ng
[1]; IV 1 mg/kg, mean of 3 rats
  Faeces concentration (homogenate), mean: 1022 ng/mL
  Faeces concentration, mean: 4088 ng/g
  Total amount of compound in faeces, mean: 22445 ng
[1]; [5]
  Faeces concentration: 146214 ng/g and 115495 ng/g and 146982 ng/g
  Faeces concentration (homogenate): 36553 ng/mL and 28874 ng/mL and 36745 ng/mL
  Recovery in faeces: 41.6% and 45.1%
  Total amount of compound in faeces: 1335427 ng and 1081683 ng and 1171915 ng
[1]; PO 10 mg/kg, mean of 3 rats
  Faeces concentration (homogenate), mean: 34058 ng/mL
  Faeces concentration, mean: 136230 ng/g
  Total amount of compound in faeces, mean: 1196341 ng
[1]; iv, 1 mg/kg, IV 1 mg/kg, individual rats IV1-IV3, read-out: Recovery in faeces
  dose excreted: 10.5%
[1]; iv, 1 mg/kg, IV 1 mg/kg, mean of 3 rats, read-out: Recovery in faeces, mean
  dose excreted: 8.9%
[1]; po, 10 mg/kg, PO 10 mg/kg, individual rats PO4-PO6, read-out: Recovery in faeces
  dose excreted: 55.6%
[1]; po, 10 mg/kg, PO 10 mg/kg, mean of 3 rats, read-out: Recovery in faeces, mean (quantity found in faeces out of the administered quantity)
  dose excreted: 47.4%
[2]; IV 1 mg/kg, 0.083 h, individual rats IV1-IV3, 1 mg/kg
  Plasma concentration: 470.2 ng/mL and 908.7 ng/mL
[2]; IV 1 mg/kg, 0.5 h, individual rats IV1-IV3, 1 mg/kg
  Plasma concentration: 108.2 ng/mL and 66.5 ng/mL
[2]; IV 1 mg/kg, 2 h, individual rats IV1-IV3, 1 mg/kg
  Plasma concentration: BLQ
[2]; IV 1 mg/kg, 6 h, individual rats IV1-IV3
  Plasma concentration: BLQ
[2]; IV 1 mg/kg, 24 h, individual rats IV1-IV3
  Plasma concentration: BLQ
[2]; IV 1 mg/kg
  % AUCextra: 0.35%
[2]; PO 10 mg/kg, 0.5 h, individual rats PO4-PO6, 10 mg/kg
  Plasma concentration: 8.1 ng/mL and 6.5 ng/mL
[2]; PO 10 mg/kg, 1 h, individual rats PO4-PO6, 10 mg/kg
  Plasma concentration: 6.5 ng/mL and BLQ
[2]; PO 10 mg/kg, 2 h, individual rats PO4-PO6, 10 mg/kg
  Plasma concentration: BLQ and 5.2 ng/mL
[2]; PO 10 mg/kg, 6 h, individual rats PO4-PO6
  Plasma concentration: BLQ
[2]; PO 10 mg/kg, 24 h, individual rats PO4-PO6
  Plasma concentration: BLQ
[2]; PO 10 mg/kg
  % AUCextra: 53.8%
[2]; male, Sprague Dawley, rat, plasma, iv, 1 mg/kg, IV 1 mg/kg, 0.083 h, individual rats IV1-IV3, read-out: Plasma concentration
  concentration at 0.083 h: 573 ng/mL
[2]; male, Sprague Dawley, rat, plasma, iv, 1 mg/kg, IV 1 mg/kg, 0.083 h, mean of 3 rats (BLQ = 0), read-out: Plasma concentration, mean
  concentration at 0.083 h: 650 ng/mL
[2]; male, Sprague Dawley, rat, plasma, iv, 1 mg/kg, IV 1 mg/kg, 0.5 h, individual rats IV1-IV3, read-out: Plasma concentration
  concentration at 0.5 h: 59.6 ng/mL
[2]; male, Sprague Dawley, rat, plasma, iv, 1 mg/kg, IV 1 mg/kg, 0.5 h, mean of 3 rats (BLQ = 0), read-out: Plasma concentration, mean
  concentration at 0.5 h: 78.1 ng/mL
[2]; male, Sprague Dawley, rat, plasma, iv, 1 mg/kg, IV 1 mg/kg, 2 h, individual rats IV1-IV3, read-out: Plasma concentration
  concentration at 2 h: 7.7 ng/mL
[2]; male, Sprague Dawley, rat, plasma, iv, 1 mg/kg, IV 1 mg/kg, 2 h, mean of 3 rats (BLQ = 0), read-out: Plasma concentration, mean
  concentration at 2 h: 2.6 ng/mL
[2]; male, Sprague Dawley, rat, plasma, iv, 1 mg/kg, IV 1 mg/kg, 6 h, mean of 3 rats (BLQ = 0), read-out: Plasma concentration, mean
  concentration at 6 h: 0 ng/mL
[2]; male, Sprague Dawley, rat, plasma, iv, 1 mg/kg, IV 1 mg/kg, 24 h, mean of 3 rats (BLQ = 0)
  concentration at 24 h: 0 ng/mL
[2]; male, Sprague Dawley, rat, plasma, po, 10 mg/kg, PO 10 mg/kg, 0.5 h, individual rats PO4-PO6, read-out: Plasma concentration
  concentration at 0.5 h: 6.7 ng/mL
[2]; male, Sprague Dawley, rat, plasma, po, 10 mg/kg, PO 10 mg/kg, 0.5 h, mean of 3 rats (BLQ = 0), read-out: Plasma concentration, mean
  concentration at 0.5 h: 7.1 ng/mL
[2]; male, Sprague Dawley, rat, plasma, po, 10 mg/kg, PO 10 mg/kg, 1 h, individual rats PO4-PO6, read-out: Plasma concentration
  concentration at 1 h: 5.5 ng/mL
[2]; male, Sprague Dawley, rat, plasma, po, 10 mg/kg, PO 10 mg/kg, 1 h, mean of 3 rats (BLQ = 0), read-out: Plasma concentration, mean
  concentration at 1 h: 4 ng/mL
[2]; male, Sprague Dawley, rat, plasma, po, 10 mg/kg, PO 10 mg/kg, 2 h, individual rats PO4-PO6, read-out: Plasma concentration
  concentration at 2 h: 6 ng/mL
[2]; male, Sprague Dawley, rat, plasma, po, 10 mg/kg, PO 10 mg/kg, 2 h, mean of 3 rats (BLQ = 0), read-out: Plasma concentration, mean
  concentration at 2 h: 3.7 ng/mL
[2]; male, Sprague Dawley, rat, plasma, po, 10 mg/kg, PO 10 mg/kg, 6 h, mean of 3 rats (BLQ = 0), read-out: Plasma concentration, mean
  concentration at 6 h: 0 ng/mL
[2]; male, Sprague Dawley, rat, plasma, po, 10 mg/kg, PO 10 mg/kg, 24 h, mean of 3 rats (BLQ = 0)
  concentration at 24 h: 0 ng/mL
[2]; [6]
  AUC(0-inf): 267 ng·h/mL
  AUC(0-t): 266 ng·h/mL
  Cmax: 651 ng/mL
  Tmax: 4.8 min
[2]; male, Sprague Dawley, rat, plasma, PO 10 mg/kg vs IV 1 mg/kg, calculated based on AUCt, read-out: F (bioavailability)
  bioavailability: 0.3%
[2]; [7]
  AUC(0-t): 8 ng·h/mL
  Cmax: 7.07 ng/mL
  Tmax: 30 min
[2]; male, Sprague Dawley, rat, plasma, PO 10 mg/kg, % AUC extra >20%: value given for indication
  AUC(0-inf): 18.2 ng·h/mL
[3]
  MIC: 6 µM
